The source of these data is patent publication US20210221784A1, “COMPOUNDS AND COMPOSITIONS FOR THE TREATMENT OF PAIN” (Université de Strasbourg, priority 2018, published 2021).

The subject of experiment [1] is C57BF6/N male mice. The experiment is described as follows: Morphine-induced hyperalgesia and tolerance, tail immersion test. Type of experiment: in vivo.
In experiment [2] the test system is C57BF6/N male mice. The experiment is described as follows: Incisional pain model, Von Frey test. Type of experiment: in vivo. Conditions: morphine 2.5 mg/kg sc. alone or 1j 5 mg/kg po alone; FIG. 3B.
In experiment [3] the test system is C57BF6/N male mice. The experiment is described as follows: Neuropathic pain model (chronic constriction injury), Von Frey test. Type of experiment: in vivo. As to conditions: morphine 3 mg/kg sc. alone or 1j 5 mg/kg p.o. alone; FIG. 4B.
Experiment [4] concerns C57BF6/N male mice. The experiment is described as follows: Fentanyl-induced hyperalgesia, tail immersion test. The format is in vivo. As to conditions: FIG. 6B.
Experiment [5] deals with T1, hNPFFR2 (Homo sapiens, UniProt Q9Y5X5).
T1 construct: expressed in transfected cells; membranes
The experiment is described as follows: Radioligand binding competition, membranes from CHO cells expressing hNPFFR2. As to conditions: 0.015 nM [D-Tyr1[125I], N-MePhe3]-NPFF, 1 hr at 25° C., read-out: NPFF2-R Ki. How it is done: Competition experiments with membranes from CHO cells stably expressing hNPFFR1 and hNPFFR2 were performed essentially as described in Elhabazi, K., et al. Neuropharmacology, 2013. 75C, 164-171., Briefly, hNPFFR1 or hNPFFR2 membranes (5 to 10 μg of proteins) were incubated (1 hr at 25° C.; 0.25 mL total volume) with 0.015 nM [D-Tyr1[125I], N-MePhe3]-NPFF (Hartmann Analytic GmbH) in 50 mM HEPES (pH 7.4), 1 mM CaCl2, 1 mM MgCl2 and 0.1% bovine serum albumin. Non-specific binding was determined in the presence of 10 μM RFRP-3. Incubation was terminated by rapid filtration through a 96-well GF/B unifilter apparatus (Perkin Elmer Life and Analytical Sciences, Courtaboeuf, France). Unifilters were washed five times with binding buffer, then dried for 1 h at 65° C. After addition of 40 μL scintillation cocktail (Microscint-O, Perkin Elmer) per well, bound radioactivity was determined on a TopCount scintillation counter (Perkin Elmer).

Experiment [6] deals with T2, hNPFFR1 (Homo sapiens, UniProt Q9GZQ6).
T2 construct: expressed in transfected cells; membranes
The experiment is described as follows: Radioligand binding competition, membranes from CHO cells expressing hNPFFR1. As to conditions: 0.015 nM [D-Tyr1[125I], N-MePhe3]-NPFF, 1 hr at 25° C., read-out: NPFF1-R Ki. Put shortly:
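CHO membranes (5–10 μg protein) stably expressing hNPFFR1 or hNPFFR2 incubated 1 h at 25 °C with 0.015 nM [D-Tyr1[125I], N-MePhe3]-NPFF in HEPES pH 7.4 with Ca2+, Mg2+, 0.1% BSA. Non-specific binding defined with 10 μM RFRP-3; bound radioactivity counted after GF/B filtration.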

Experiment [7] deals with T3, hNPFF1R (Homo sapiens, UniProt Q9GZQ6).
T3 construct: expressed in transfected cells
The experiment is described as follows: Glo Sensor cAMP assay in HEK-293 expressing hNPFF1R. Type of experiment: cell-based. As to conditions: HEK-293 cells expressing hNPFF1R; FIG. 7. How it is done: The functional characterization of the selected compounds was performed by Glo Sensor cAMP kinetic assay, a validated approach for measuring Gαi/s activation by GPCRs (DiRaddo et al., 2014; Gilissen et al., 2015). HEK-Glo cells expressing either NPFF1 or NPFF2 receptors were suspended (10^6 cells per mF) in physiological Hepes buffer (10 mM HEPES, 0.4 mM NaH2PO4, 137.5 mM NaCl, 1.25 mM MgCl2, 1.25 mM CaCl2, 6 mM KCl, 10 mM glucose and 1 mg/mF bovine serum albumin, pH 7.4) supplemented with 1 mM D-Fuciferine. After equilibration for 2 h at 25° C., luminescence levels were recorded in real time in 96-well plates using a Flexstation^R 3 (Molecular Devices, Sunnyvale Calif., USA). Non-specific effect of the different compounds was evaluated in HEK-Glo cells without any recombinant human RF-amide receptors. To test the agonist activity on NPFF1R and NPFF2R, compounds were injected 15 minutes before addition of forskolin (0.5 μM) and readings were pursued for 90 minutes. To evaluate their antagonist properties, compounds were pre-incubated with cells for 15 minutes before prototypical agonists for NPFF1R (RFRP-3) and NPFF2R (NPFF) receptors. According to their preferential coupling to Gi/o proteins, the stimulation of NPFF1R and NPFF2R by agonists was monitored as a dose-dependent reduction in steady-state luminescence levels, reflecting the inhibition of forskolin-induced cAMP accumulation. Experiments were performed at 25° C. in the presence of 0.5 mM IBMX to prevent the degradation of cAMP by phosphodiesterases.

Experiment [8] concerns the target T4, human NPFFR1 (hNPFFR1) receptor (Homo sapiens, UniProt Q9GZQ6).
T4 construct: expressed in transfected cells; host or cells: HEK-293 T cells, transient co-transfection
The experiment is described as follows: Human NPFFR1 evaluation using BRET biosensors in HEK-293 T cells. The format is cell-based. Conditions: hNPFFR1 in HEK-293 T cells, stimulated by EC80 RFRP-3, read-out: IC50 of antagonist activity. The method in brief: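 HEK-293 T cells transiently co-expressing hNPFFR1, GαoB and a Gi-effector BRET biosensor pair; agonist read after 10 min compound alone, then antagonism after EC80 RFRP-3 for 10 min. IC50 from 20-point curves over 6 logs, duplicates in two independent experiments.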

Experiment [9] concerns NPFF receptor. As to conditions: Simonin et al., PNAS (2006); cited from earlier work.
The subject of experiment [10] is rat. Conditions: repeated administration of opiate analgesics; cited from earlier work.

T4 sequence (Q9GZQ6 whole entry): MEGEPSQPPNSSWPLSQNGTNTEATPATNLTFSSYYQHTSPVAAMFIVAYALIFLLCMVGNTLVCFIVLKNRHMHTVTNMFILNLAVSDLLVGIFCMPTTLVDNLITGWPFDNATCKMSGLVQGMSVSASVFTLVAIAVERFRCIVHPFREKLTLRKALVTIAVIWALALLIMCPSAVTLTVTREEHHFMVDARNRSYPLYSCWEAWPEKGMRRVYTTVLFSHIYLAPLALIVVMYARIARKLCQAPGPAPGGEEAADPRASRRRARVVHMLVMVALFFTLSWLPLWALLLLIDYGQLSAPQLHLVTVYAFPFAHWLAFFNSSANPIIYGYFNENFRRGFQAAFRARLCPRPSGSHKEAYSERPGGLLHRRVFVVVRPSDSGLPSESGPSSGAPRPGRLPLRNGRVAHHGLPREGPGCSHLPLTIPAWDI
T3 sequence (Q9GZQ6 whole entry): as above
T2 sequence (Q9GZQ6 whole entry): as above
T1 sequence (Q9Y5X5 whole entry): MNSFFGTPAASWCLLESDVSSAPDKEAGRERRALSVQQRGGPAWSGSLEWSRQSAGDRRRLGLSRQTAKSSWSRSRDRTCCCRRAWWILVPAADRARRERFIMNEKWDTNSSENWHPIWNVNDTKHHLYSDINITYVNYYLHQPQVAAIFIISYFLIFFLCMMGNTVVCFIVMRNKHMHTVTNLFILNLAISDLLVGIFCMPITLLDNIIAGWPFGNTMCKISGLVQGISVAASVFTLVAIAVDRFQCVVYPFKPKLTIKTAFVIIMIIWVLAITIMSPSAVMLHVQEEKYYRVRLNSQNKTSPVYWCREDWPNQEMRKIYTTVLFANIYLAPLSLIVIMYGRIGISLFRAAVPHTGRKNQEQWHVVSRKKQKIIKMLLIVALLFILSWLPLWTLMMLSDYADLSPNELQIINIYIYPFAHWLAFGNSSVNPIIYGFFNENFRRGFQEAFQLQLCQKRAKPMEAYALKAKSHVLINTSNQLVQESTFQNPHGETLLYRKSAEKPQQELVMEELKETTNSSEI

On to `CN1CC[C@]23c4c5ccc(O)c4O[C@H]2[C@@H](O)C=C[C@H]3[C@H]1C5.Cl` [morphine, Morphine hydrochloride, reference compound], for which the “Hyperalgesia index (HI) d1 to d7” value in [1] (daily morphine 10 mg/kg s.c., 1j 5 mg/kg oral or vehicle before morphine, FIG. 2B) is listed as −16.2±2. Further, in experiment [1] (morphine 5 mg/kg s.c. alone or combined with 1j 5 mg/kg p.o., after chronic morphine, FIG. 2C), the “peak of analgesia at day 8” value was found to be 9±0.8. The “peak of analgesia at day 0” value in experiment [1] (morphine 5 mg/kg s.c. alone or combined with 1j 5 mg/kg p.o., FIG. 2C) was 17±0.8. Further, in experiment [2], the “mechanical allodynia after paw incision (allodynia index d1-d6), drug alone” value is “failed to prevent significantly the mechanical allodynia”. Besides, the “mechanical allodynia after CCI (allodynia index d11-d21), drug alone” value in experiment [3] is “slightly but not significantly prevented the mechanical allodynia”.

What is called Ki is a measure of affinity in units of concentration, obtained from inhibition or displacement. As a reminder, the IC50 is the point on the concentration scale where inhibition reaches its midpoint. As for `Cc1ccccc1-c1ccc(N)nc1N` [Compound 1c, 3-(o-tolyl)pyridine-2,6-diamine], the “fentanyl hyperalgesia (hyperalgesia index d1 to d4)” value in [4] (0.2 mg/kg sc. 20 min before fentanyl 4×60 μg/kg sc.) and in experiment [4] (1 mg/kg sc. 20 min before fentanyl 4×60 μg/kg sc.) was “prevented fentanyl hyperalgesia” each time. The Ki in experiment [5] turned out to be 30 µM; in experiment [6], 0.023 µM. The “antagonist activity: effect on dose response curve of NPVF (RFRP-3), forskolin-stimulated cAMP” value in [7] is “antagonist activity similar as compound 1j”. Besides, the IC50 in experiment [8] is 0.1 to 0.5 µM.

In the case of “N^α-adamantan-1-yl-L-Arg-L-Phe-NH2 acetate [RF9]”, the “NPFF receptor antagonist potency” value in [9] is listed as “first nanomolar NPFF receptor antagonist”. The “antihyperalgesic activity in vivo” value in experiment [10] was “reversing hyperalgesia induced by the repeated administration of opiate analgesics”.
